We go through 3 compounds from article PMC7156612, “Olinciguat, an Oral sGC Stimulator, Exhibits Diverse Pharmacology Across Preclinical Models of Cardiovascular, Metabolic, Renal, and Inflammatory Disease” (Frontiers in Pharmacology, 2020).

Each structure is given as a SMILES string. Entries after “also recorded” stand apart in the source; their conditions may differ.

Series [1] deals with obese ZSF1 rats. Details: method as in Bilan et al., 2011. The following applies: 8-week old obese ZSF1 rats, enalapril 60 mg/kg/day in drinking water for 24 weeks; ref Bilan et al., 2011; cited from earlier work.
For series [2], the system named is obese ZSF1 rats. Put plainly: ZSF1 rat model of metabolic syndrome and diabetic nephropathy. It counts as in vivo. How it is done:
Lean (n=8, 370–420 g, 15 weeks) and obese (n=32, 500–630 g, 15 weeks) male ZSF1 rats were studied. Rats were treated with enalapril to reflect standard of care drug treatment for patients with diabetic kidney disease. Dose modeling based on allometric scaling relationships estimated that a 10 mg/day enalapril dose in humans (within usual dose range of 10–40 mg based on prescribing information) corresponds to 1 mg/kg/day in rats ([Nair and Jacob, 2016]). To measure hemodynamics in freely moving animals, ZSF1 obese rats were implanted with telemetry transmitters (HD-S10, Data Sciences International) at 9–10 weeks of age, as described above.
The study included a 10-day pretreatment period and a 10-week treatment period. There were five groups of rats in the study. The lean ZSF1 control group (lean control, n=8) and one obese group (obese control, n=8) were fed normal chow and drinking water throughout the 10-day pretreatment period and the 10-week treatment period. Three groups of obese rats were treated with enalapril in drinking water (equivalent to 3 mg/kg/day) throughout the 10-day pretreatment period and the 10-week treatment period. During the treatment period, these enalapril-treated obese rats were administered normal chow (ENP, n=8) or chow containing olinciguat targeting the dose of 10 mg/kg/day (ENP+OLI10, n=8) or 30 mg/kg/day (ENP+OLI30, n=8). Blood and 24-h urine samples were obtained from all animals at baseline (immediately prior to initiation of enalapril treatment), the end of the 10-day pretreatment period (Day 10) and at week 5 and week 10 of the treatment period. Plasma samples were obtained from all olinciguat-treated animals for measurement of olinciguat exposure at week 10. During week 9 of treatment, rats were fasted for 16 h overnight prior to determination of fasting blood glucose using the AlphaTRAK (Abbott) glucose monitoring system. Body weight was measured once every other week. At the end of the study, rats were anesthetized and perfused via the left ventricle with heparinized PBS (1 U/ml heparin) containing IBMX (1 mM). Organs were collected and weighed, and plasma was collected in EDTA tubes. For serum, blood was collected in serum separator tubes, maintained at room temperature for at least 30 min and centrifuged at 6,000 rpm for 10 min, and then stored at −80°C until analysis. Urine and serum samples were analyzed using the Randox Daytona Clinical Chemistry Analyzer (Randox, Kearneysville, WV) for urine protein, serum cholesterol and serum triglycerides. All measurements were performed in accordance with manufacturer's instructions.
For histology, one kidney from each rat was fixed in 10% formalin, then embedded in paraffin. Slides were prepared and stained with hematoxylin and eosin (H&E) and periodic-acid Schiff (PAS) for light microscopic analysis. Kidney sections were evaluated for the presence of glomerular pathology, tubular damage, interstitial inflammation, interstitial fibrosis, and vascular alterations. Severity-based scoring based on these evaluations was performed by a trained pathologist.
For the ZSF1 experiment, data are expressed as mean ± standard error of the mean (SEM).
In the ZSF1 study, change from baseline NT-proBNP, week 10 heart, kidney, and liver weight, urine volume, cholesterol, triglycerides, glucose, and renal histopathology sum score were analyzed by one-way ANOVA corrected for multiple comparisons using Tukey's method. Statistically significant differences vs the obese control and vs the ENP group are indicated in the results. MAP and UPE were analyzed by an ordinary two-way ANOVA with timepoint and treatment group as independent variables, followed by a Tukey's multiple comparisons test. Within each treatment group, significant differences vs baseline are indicated in the results. At week 10, statistically significant differences vs the obese control and vs the ENP control are also indicated in the results.

Details of series [3]: method as in Tobin et al., 2018. The following applies: ref Tobin et al., 2018; cited from earlier work.
Series [4] deals with pulmonary artery smooth muscle from healthy subjects. Details: method as in Yamamura et al., 2017. As to conditions: ref Yamamura et al., 2017; cited from earlier work.
Series [5] has as its system pulmonary artery smooth muscle from idiopathic pulmonary arterial hypertension (PAH) patients. Details: method as in Yamamura et al., 2017. As to conditions: ref Yamamura et al., 2017, read-out: IC50, inhibition of proliferation; cited from earlier work.
The subject of series [6] is vascular smooth muscle cells (VSMC) from rat aorta. Put plainly: Rat aorta vascular smooth muscle cell proliferation (3H-thymidine incorporation). In kind it is cell-based. The following applies: tadalafil alone at or below 10 µM; 5% FBS, 10 µM DETA. How it is done:
We explored the concentration response of olinciguat, tadalafil, and olinciguat in the presence of 1 μM tadalafil on rat aorta vascular smooth muscle proliferation, Tadalafil was used because it is a once-daily PDE5 inhibitor that, like the three-times-daily PDE5 inhibitor sildenafil, is approved for treatment of PAH and ED. Vascular smooth muscle cells (VSMC) from rat aorta (Lonza, R-ASM-580) were plated into a 96-well plate at 15,000 cells per well in DMEM:F12 containing 20% FBS and GA-1000 ([Gentamicin, Amphotericin B], Lonza, CC-40863) for 24 h at 37°C. Medium was removed and cells were washed once with 100 μl DMEM:F12 before adding 100 μl of DMEM:F12 and incubating for 24 h to induce quiescence. Cells were then cultured for 24 h in DMEM:F12 supplemented with 5% FBS, in the presence of test articles (vehicle, olinciguat, tadalafil) with 10 µM DETA. In the last 6 h, 0.2 μCi of ^3H-thymidine (American Radiolabeled Chemicals, ART 0178A) was added to each well to measure DNA synthesis by thymidine incorporation. Cells were washed once with HBSS and then trypsinized and transferred into FB filter plates (Millipore, MADVNOB). A rapid-filtration technique using a filtration apparatus (Millipore, MAVM0960R) with vacuum aspiration was used to harvest and rinse labeled cells (6× with 0.2 ml of chilled water). The radioactivity bound to the filters was counted with 80 µl of liquid scintillant (PerkinElmer, UltraGold MV, 6013159) in a scintillation counter (Perkin Elmer Microbeta instrument).
In the vascular smooth muscle cell proliferation experiment, a comparison between the IC50's for olinciguat alone vs oliniciguat in the presence of 1 µM tadalafil was performed by a two-tailed t-test using Log EC50 best fit values and SEs determined from a four-parameter nonlinear curve fit, assuming n=60 degrees of freedom.
In general terms: Uptake of a labelled nucleoside into DNA is a usual measure of proliferation.

Details of series [7]: method as in Forgue et al., 2006. As to conditions: healthy volunteers, after 10 days of dosing at 20 mg QD; ref Forgue et al., 2006; read-out: Cmax plasma concentration; cited from earlier work.

For the compound `CCOC(=O)[C@H](CCc1ccccc1)N[C@@H](C)C(=O)N1CCC[C@H]1C(=O)O` [ENP, reference compound], in series [1], the “reduction in MAP” value is recorded as ~ 50 mmHg. Besides, the “MAP at Week 10” value in series [2] (obese ZSF1, enalapril 3 mg/kg/day in drinking water, obese control 122 ± 1) was 111 ± 1 mmHg. Also, the fasting blood glucose in series [2] (obese ZSF1, enalapril 3 mg/kg/day, week 9, obese control 279.4 ± 36.5) stood at 276.5 ± 30.9 mg/dL. In series [2] (obese ZSF1, enalapril 3 mg/kg/day, baseline to end of treatment, obese control +86 ± 22), the “change from baseline NT-proBNP” value is on record as “+44 ± 28 pg/ml”. Besides, the total kidney weight in series [2] (obese ZSF1, enalapril 3 mg/kg/day, obese control 9.7 ± 0.2, lean 7.4 ± 0.07) came to 9.5 ± 0.3 g/kg BW. Further, the “renal pathology sum score” value in series [2] (obese ZSF1, enalapril 3 mg/kg/day, obese control 14.6 ± 0.2, p=0.025 vs obese control) amounted to 12.2 ± 0.4. In series [2] (obese ZSF1, enalapril 3 mg/kg/day, obese control 72.0 ± 1.9), the liver weight turned out to be 70.5 ± 1.1 g/kg BW. Moreover, the “serum cholesterol at week 10” value in series [2] (obese ZSF1, enalapril 3 mg/kg/day, obese control 428.6 ± 12.7) was found to be 383 ± 9.8 mg/dL. Besides, the “serum triglycerides at week 10” value in series [2] (obese ZSF1, enalapril 3 mg/kg/day, obese control 4913 ± 487.1) amounted to 3850 ± 326.0 mg/dL. In addition, in series [2] (obese ZSF1, enalapril alone 3 mg/kg/day, obese controls 153%), the “increase of proteinuria over 10-week treatment period” value came to 168%. The “kidney weight, percent greater than in the lean control group” value in series [2] (obese ZSF1 treated with enalapril) is given as 28%.
Regarding `OC(CNc1nc(-c2cc(-c3ccon3)n(Cc3ccccc3F)n2)ncc1F)(C(F)(F)F)C(F)(F)F` [praliciguat], the volume of distribution in series [3] was 10.5 L/kg.
Take `CN1CC(=O)N2[C@H](c3ccc4c(c3)OCO4)c3[nH]c4ccccc4c3C[C@@H]2C1=O` [tadalafil]: the effect on proliferation entry in series [4] was “no effect”. Besides, the IC50 in series [5] is 4.5 µM. For the same compound, the “inhibition of VSMC proliferation by tadalafil alone” value in series [6] is on record as “did not inhibit vascular smooth muscle cell proliferation; also recorded: did not inhibit VSMC proliferation”. Moreover, the Cmax in series [7] was 1000 nM.
